The target in the assay is T1, CDK4/cyclin D3 (Homo sapiens, UniProt P11802).
T1 construct: made in house; host or cells: insect cells (baculovirus co-infection)
In words: Inhibition of CDK4/Cyclin D retinoblastoma kinase activity. Type of assay: biochemical. The conditions noted are these: for inhibition at 0.1 µM / % Inhib CDK4/D @ 0.1 μM: test compound at 0.1 μM; for inhibition at 0.1 µM: read-out: % Inhib CDK4/D @ 0.1 μM; for inhibition at 1 µM / % Inhib CDK4/D @ 1 μM: test compound at 1 μM (head line shifted: 'mM' printed beside 'Structure'); for inhibition at 1 µM: read-out: % Inhib CDK4/D @ 1 μM; for inhibition at 0.03 µM / % Inhib CDK4/D @ 0.03: test compound at 0.03 (unit cell empty, head line shifted; μM); for inhibition at 0.03 µM: read-out: % Inhib CDK4/D @ 0.03. Here is the method:
Cyclin-dependent kinase activity was measured by quantifying the enzyme-catalyzed, time-dependent incorporation of radioactive phosphate from [^32P]ATP or [^33P]ATP into a protein substrate. Unless noted otherwise, assays were performed in 96-well plates in a total volume of 50 μL, in the presence of 10 mM HEPES (N-[2-hydroxyethyl]piperazine-N′-[2-ethanesulfonic acid]) (pH 7.4), 10 mM MgCl2, 25 μM adenosine triphosphate (ATP), 1 mg/mL ovalbumin, 5 μg/mL leupeptin, 1 mM dithiothreitol, 10 mM β-glycerophosphate, 0.1 mM sodium vanadate, 1 mM sodium fluoride, 2.5 mM ethylene glycol-bis(β-aminoethyl ether)-N,N,N′N′-tetraacetic acid (EGTA), 2% (v/v) dimethylsulfoxide, and 0.03-0.4 μCi [^32/33P]ATP per reaction. Reactions were initiated with enzyme, incubated at 30° C., and terminated after 20 minutes by the addition of ethylenediaminetetraacetic acid (EDTA) to 250 mM. The phosphorylated substrate was then captured on a nitrocellulose or phosphocellulose membrane using a 96-well filtration manifold, and unincorporated radioactivity was removed by repeated washing with 0.85% phosphoric acid. Radioactivity was quantified by exposing the dried membranes to a phosphorimager.
Inhibition was measured relative to control wells that contained all reaction components including 2% (v/v) DMSO but no compound, after subtraction of background radioactivity measured in the absence of enzyme. Apparent Ki values of discrete compounds were measured by assaying enzyme activity in the presence of different inhibitor compound concentrations and subtracting the background radioactivity measured in the absence of enzyme. The kinetic parameters (kcat, Km for ATP) were measured for each enzyme under the usual assay conditions by determining the dependence of initial rates on ATP concentration. Inhibition data were fit to an equation for competitive inhibition using Kaleidagraph (Synergy Software), or were fit to an equation for competitive tight-binding inhibition using the software KineTic (BioKin, Ltd.).
A complex of human CDK4 and genetically truncated (1-264) cyclin D3 was purified using traditional biochemical chromatographic techniques from insect cells that had been co-infected with the corresponding baculovirus expression vectors (see e.g., Meijer and Kim, “Chemical Inhibitors of Cyclin-Dependent Kinases,” Methods in Enzymol., 283, 113-128 (1997)). The enzyme complex (5 nM) was assayed with 0.3-0.5 μg of purified recombinant retinoblastoma protein fragment (Rb) as a substrate. The engineered Rb fragment (residues 386-928 of the native retinoblastoma protein; 62.3 kDa) contains the majority of the phosphorylation sites found in the native 106-kDa protein, as well as a tag of six histidine residues for ease of purification. Phosphorylated Rb substrate was captured by microfiltration on a nitrocellulose membrane and quantified using a phosphorimager as described above. For measurement of tight-binding inhibitors, the assay duration was extended to 60 minutes, during which the time-dependence of product formation was linear and initial rate conditions were met.

The values that follow come from US20040176431A1, “Antiproliferative 2-(sulfo-phenyl)-aminothiazole derivatives and pharmaceutical compositions, and methods for their use” (Pfizer, Inc., priority 2003, published 2004).

T1 sequence (P11802 whole entry): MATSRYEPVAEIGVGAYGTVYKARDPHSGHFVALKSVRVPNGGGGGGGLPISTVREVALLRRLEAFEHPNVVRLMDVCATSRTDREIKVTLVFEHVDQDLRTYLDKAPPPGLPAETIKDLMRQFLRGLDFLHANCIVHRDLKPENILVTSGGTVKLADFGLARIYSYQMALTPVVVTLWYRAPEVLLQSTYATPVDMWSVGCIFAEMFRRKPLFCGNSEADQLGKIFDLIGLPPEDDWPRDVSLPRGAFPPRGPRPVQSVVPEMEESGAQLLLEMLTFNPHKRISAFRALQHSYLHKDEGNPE
T1 sequence (P30281 1-264 partner limits assumed): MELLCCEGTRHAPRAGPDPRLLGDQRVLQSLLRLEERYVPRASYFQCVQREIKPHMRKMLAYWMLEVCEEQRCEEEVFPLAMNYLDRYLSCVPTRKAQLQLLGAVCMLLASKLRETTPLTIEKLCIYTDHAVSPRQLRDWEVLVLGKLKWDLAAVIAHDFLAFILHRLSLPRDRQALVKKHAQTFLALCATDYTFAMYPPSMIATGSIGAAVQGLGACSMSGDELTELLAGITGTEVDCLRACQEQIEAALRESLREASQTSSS

With `C=CCCSc1ccc(Nc2nc(N)c(C(=O)c3c(Cl)cccc3Cl)s2)cc1` [DD(6)], the inhibition at 0.1 µM was found to be 20%, the inhibition at 1 µM was 48% and the inhibition at 0.03 µM worked out at 22%.

As to `CC(=O)OCCS(=O)(=O)c1ccc(Nc2nc(N)c(C(=O)c3c(Cl)cccc3Cl)s2)cc1` [DD(237)], the “% Inhib CDK4/D @ 0.1 μM” value was 22%, the “% Inhib CDK4/D @ 1 μM” value was 7.3% and the “% Inhib CDK4/D @ 0.03” value is −1.7%.

`CCC(CC)CSc1ccc(Nc2nc(N)c(C(=O)c3c(Cl)cccc3Cl)s2)cc1` [DD(36)]: the inhibition at 0.1 µM amounted to 18%, the inhibition at 1 µM was found to be 49.6% and the inhibition at 0.03 µM was 9%.

For `CC(C)OC(=O)CCSc1ccc(Nc2nc(N)c(C(=O)c3c(Cl)cccc3Cl)s2)cc1` [DD(38)], the inhibition at 0.1 µM is 32%, the inhibition at 1 µM turned out to be 57.8% and the inhibition at 0.03 µM amounted to 6.5%.

As for `Nc1nc(Nc2cccc([S+]([O-])CC3CO3)c2)sc1C(=O)c1c(Cl)cccc1Cl` (stereo not shown) [DD(132)], the inhibition at 0.1 µM stood at 64%, the inhibition at 1 µM turned out to be 62% and the inhibition at 0.03 µM stood at 44%.

Take `Nc1nc(Nc2ccc(S(=O)(=O)CC3CCCO3)cc2)sc1C(=O)c1c(Cl)cccc1Cl` (stereo not shown) [DD(218)]: the “% Inhib CDK4/D @ 0.1 μM” value came out at 33%, the “% Inhib CDK4/D @ 1 μM” value worked out at 23.4% and the “% Inhib CDK4/D @ 0.03” value is given as −12%.

With `NC(=O)CS(=O)(=O)c1ccc(Nc2nc(N)c(C(=O)c3c(Cl)cccc3Cl)s2)cc1` [DD(181)], the inhibition at 0.1 µM turned out to be 28%, the inhibition at 1 µM is 27.5% and the “% Inhib CDK4/D @ 0.03” value is −10%.

Regarding `COC(=O)/C=C/C[S+]([O-])c1ccc(Nc2nc(N)c(C(=O)c3c(Cl)cccc3Cl)s2)cc1` (stereo not shown) [DD(84)], the inhibition at 0.1 µM came to 26%, the inhibition at 1 µM worked out at 45.7% and the inhibition at 0.03 µM is -5.6%.

With `Nc1nc(Nc2ccc(S(=O)(=O)Cc3ccncc3)cc2)sc1C(=O)c1c(Cl)cccc1Cl` [DD(235)], the inhibition at 0.1 µM turned out to be 27%, the inhibition at 1 µM is 6.9% and the inhibition at 0.03 µM is 7.7%.

`CC(C)CCCSc1ccc(Nc2nc(N)c(C(=O)c3c(Cl)cccc3Cl)s2)cc1` [DD(30)]: the inhibition at 0.1 µM came out at 13%, the inhibition at 1 µM turned out to be 32.3% and the inhibition at 0.03 µM amounted to 3.1%.

With `C=CCC[S+]([O-])c1ccc(Nc2nc(N)c(C(=O)c3c(Cl)cccc3Cl)s2)cc1` (stereo not shown) [DD(86)], the inhibition at 0.1 µM was 36%, the inhibition at 1 µM amounted to 62.5% and the inhibition at 0.03 µM is -9.8%.

For the compound `CC(C)OC(=O)CC[S+]([O-])c1ccc(Nc2nc(N)c(C(=O)c3c(Cl)cccc3Cl)s2)cc1` (stereo not shown) [DD(118)], the inhibition at 0.1 µM came to 22%, the inhibition at 1 µM turned out to be 49.9% and the inhibition at 0.03 µM was -0.7%.

For `Nc1nc(Nc2cccc([S+]([O-])CCN3CCOCC3)c2)sc1C(=O)c1c(Cl)cccc1Cl` (stereo not shown) [DD(159)], the inhibition at 0.1 µM worked out at 25%, the inhibition at 1 µM is 44% and the inhibition at 0.03 µM stood at 36%.

For `Cc1noc(C)c1C[S+]([O-])c1ccc(Nc2nc(N)c(C(=O)c3c(Cl)cccc3Cl)s2)cc1` (stereo not shown) [DD(82)], the inhibition at 0.1 µM is -4%, the inhibition at 1 µM was determined as 72.3% and the inhibition at 0.03 µM was -3.3%.

Regarding `CCOC(=O)CCS(=O)(=O)c1ccc(Nc2nc(N)c(C(=O)c3c(Cl)cccc3Cl)s2)cc1` [DD(182))], the “% Inhib CDK4/D @ 0.1 μM” value was determined as 17%, the “% Inhib CDK4/D @ 1 μM” value came out at 5.4% and the “% Inhib CDK4/D @ 0.03” value was −12%.

`CC(C)CC[S+]([O-])c1ccc(Nc2nc(N)c(C(=O)c3c(Cl)cccc3Cl)s2)cc1` (stereo not shown) [DD(93)]: the inhibition at 0.1 µM stood at 35%, the inhibition at 1 µM was 43% and the inhibition at 0.03 µM is -4.4%.

In the case of `COc1cccc(CS(=O)(=O)c2ccc(Nc3nc(N)c(C(=O)c4c(Cl)cccc4Cl)s3)cc2)c1` [DD(217)], the “% Inhib CDK4/D @ 0.1 μM” value stood at 39%, the “% Inhib CDK4/D @ 1 μM” value is listed as −21% and the “% Inhib CDK4/D @ 0.03” value is on record as −8%.

Regarding `COC(=O)CS(=O)(=O)c1ccc(Nc2nc(N)c(C(=O)c3c(Cl)cccc3Cl)s2)cc1` [DD(186)], the inhibition at 0.1 µM stood at 26%, the “% Inhib CDK4/D @ 1 μM” value is 38.9% and the “% Inhib CDK4/D @ 0.03” value worked out at 7%.

With `CC(C)(CO)CS(=O)(=O)c1ccc(Nc2nc(N)c(C(=O)c3c(Cl)cccc3Cl)s2)cc1` [DD(240)], the “% Inhib CDK4/D @ 0.1 μM” value came out at 11%, the “% Inhib CDK4/D @ 1 μM” value is 8.7% and the “% Inhib CDK4/D @ 0.03” value turned out to be 6.8%.

Consider `CC(CN(C)C)CS(=O)(=O)c1ccc(Nc2nc(N)c(C(=O)c3c(Cl)cccc3Cl)s2)cc1` (stereo not shown) [DD(163)], for which the inhibition at 0.1 µM was determined as 27%, the inhibition at 1 µM worked out at 52.8% and the inhibition at 0.03 µM was -5.8%.

`COc1cccc(CSc2cccc(Nc3nc(N)c(C(=O)c4c(Cl)cccc4Cl)s3)c2)c1` [DD(57)]: the inhibition at 0.1 µM was -9%, the inhibition at 1 µM was 24.6% and the inhibition at 0.03 µM is -14%.

As for `CCOC(=O)CC[S+]([O-])c1cccc(Nc2nc(N)c(C(=O)c3c(Cl)cccc3Cl)s2)c1` (stereo not shown) [DD(142)], the inhibition at 0.1 µM stood at 36%, the inhibition at 1 µM stood at 39.3% and the inhibition at 0.03 µM was -2.6%.

As for `CSc1cccc(Nc2nc(N)c(C(=O)c3c(Cl)cccc3Cl)s2)c1` [R(3), 4-Amino-5-(2,6-dichlorobenzoyl)-2-(3-methylthio-phenylamino)-thiazole], the Ki (apparent Ki, Rb fragment substrate) was found to be 74 nM.

Take `Nc1nc(Nc2cccc([S+]([O-])CCN3CCCC3)c2)sc1C(=O)c1c(Cl)cccc1Cl` (stereo not shown) [DD(127)]: the inhibition at 0.1 µM amounted to 34%, the inhibition at 1 µM amounted to 49.6% and the inhibition at 0.03 µM was -4.3%.

As to `Nc1nc(Nc2cccc(SCC3CO3)c2)sc1C(=O)c1c(Cl)cccc1Cl` (stereo not shown) [DD(52)], the inhibition at 0.1 µM was 34%, the inhibition at 1 µM was 74.9% and the inhibition at 0.03 µM worked out at 15%.

`Nc1nc(Nc2ccc([S+]([O-])CC(=O)Nc3ccccc3)cc2)sc1C(=O)c1c(Cl)cccc1Cl` (stereo not shown) [DD(95)]: the inhibition at 0.1 µM amounted to 55%, the inhibition at 1 µM is 80.7% and the inhibition at 0.03 µM was determined as 5.3%.

With `NC(=O)CCSc1ccc(Nc2nc(N)c(C(=O)c3c(Cl)cccc3Cl)s2)cc1` [DD(28)], the inhibition at 0.1 µM was 51%, the inhibition at 1 µM amounted to 86.8% and the inhibition at 0.03 µM was 19%.

Regarding `COC(=O)C[S+]([O-])c1ccc(Nc2nc(N)c(C(=O)c3c(Cl)cccc3Cl)s2)cc1` (stereo not shown) [DD(106)], the inhibition at 0.1 µM is 45%, the inhibition at 1 µM was determined as 66.8% and the inhibition at 0.03 µM was determined as 1.7%.

With `CN(C)CCSc1cccc(Nc2nc(N)c(C(=O)c3c(Cl)cccc3Cl)s2)c1` [DD(72)], the inhibition at 0.1 µM is 25%, the inhibition at 1 µM was found to be 69% and the inhibition at 0.03 µM is -1.1%.

As to `CCOC(=O)CCSc1ccc(Nc2nc(N)c(C(=O)c3c(Cl)cccc3Cl)s2)cc1` [DD(22)], the inhibition at 0.1 µM came out at 9.1%, the inhibition at 1 µM worked out at 56.2% and the inhibition at 0.03 µM is 8.1%.

With `CCC(CC)CS(=O)(=O)c1ccc(Nc2nc(N)c(C(=O)c3c(Cl)cccc3Cl)s2)cc1` [DD(236)], the inhibition at 0.1 µM is 30%, the inhibition at 1 µM stood at 1.7% and the inhibition at 0.03 µM was -0.4%.

For `CN(c1ccc(S(=O)(=O)CC(O)CO)cc1)c1nc(N)c(C(=O)c2c(Cl)cccc2Cl)s1` (stereo not shown) [DD(234)], the inhibition at 0.1 µM is 35%, the inhibition at 1 µM was 26.1% and the inhibition at 0.03 µM worked out at 9.6%.

As to `Nc1nc(Nc2ccc([S+]([O-])CCO)cc2)sc1C(=O)c1c(Cl)cccc1Cl` (stereo not shown) [DD(110)], the “% Inhib CDK4/D @ 0.1 μM” value stood at 27%, the “% Inhib CDK4/D @ 1 μM” value is reported as 28.9% and the “% Inhib CDK4/D @ 0.03” value came out at 3.7%.
